In patent US9951088B2, “D2 receptor modulators and methods of use thereof in the treatment of diseases and disorders” (SUNOVION PHARMACEUTICALS INC., priority 2012, dated 2018):

Legend:
[1] = molecular target: T1, long isoform of human D2 receptor (Homo sapiens, UniProt P14416); experiment: Arrestin Antagonist Assay (DRD2L PathHunter CHO-K1 cells, vs EC80 dopamine); conditions: for Emax: CHO-K1, read-out: β-arrestin (antagonist mode) Imax
Experimental: Cell Lines: Activities of the compounds were assessed using a Chinese Hamster Ovary (CHO—K1) cell line that recombinantly expressed the long isoform of human D2 receptor (DRD2L PathHunter cells). The D2 receptor DNA sequence was modified to contain a “ProLink” at its C-terminus which allowed complementation with an “enzyme acceptor” (EA)-tagged β-arrestin protein. The recruitment of the O-arrestin by the D2 receptor led to complementation of the ProLink and EA and formation of active β-galactosidase which generated a D2-specific signal that was measured.
Arrestin Antagonist Assay: One day prior to testing, a vial of high density stock of DRD2L PathHunter cells was thawed, and 1×10^7 cells diluted into 40 mL of growth media (Ham's F12/10% HI FBS/1% PSG). 20 μL cells per well were seeded directly into assay plates, and the plates were allowed to rest for 1 h at RT before incubating in a plate incubator overnight.
The plate was incubated for 30 min at 37° C. 15 μL PathHunter detection reagent was added to each well of the assay plate, which was then covered and incubated for 1 h at RT. The plate was read on an Envision reader using the Luminescence protocol, and the data were exported for analysis.
The IC50 values (concentration producing a half-maximal inhibitory response) were determined by non-linear regression analysis of the concentration-response curves.

[2] = molecular target: T1, long isoform of human D2 receptor; experiment: cAMP HTRF Agonist Assay (DRD2L PathHunter CHO-K1 cells, forskolin-stimulated); conditions: for Emax: CHO-K1, read-out: cAMP (agonist mode) Emax
Experimental: Cell Lines: Activities of the compounds were assessed using a Chinese Hamster Ovary (CHO—K1) cell line that recombinantly expressed the long isoform of human D2 receptor (DRD2L PathHunter cells). The D2 receptor DNA sequence was modified to contain a “ProLink” at its C-terminus which allowed complementation with an “enzyme acceptor” (EA)-tagged β-arrestin protein. The recruitment of the O-arrestin by the D2 receptor led to complementation of the ProLink and EA and formation of active β-galactosidase which generated a D2-specific signal that was measured. The cAMP assay was measured in the same D2-expressing cell line. The D2 receptor inhibited cAMP formation so that the basal levels of cAMP were increased by the addition of an adenylate cyclase stimulator, forskolin.
cAMP HTRF Agonist Assay: Two days prior to testing, a vial of high density stock of DRD2L PathHunter cells was thawed, and cells were diluted into 10 mL of growth media (Ham's F12/10% HI FBS/1% PSG) and used to seed a T225 flask containing 50 mL of growth media. Cells were cultured for 2 days.
On the day of the assay, cells were dissociated in 5 mL cell dissociation buffer (enzyme free—Invitrogen) for 10-15 minutes at 37° C. Dissociated cells were diluted with 10 mL of growth media and counted. Cell counts were routinely ˜2×10^7 per T225. Cells were then pelleted at 1500 rpm for 5 min. Supernatant was aspirated, and cells were re-suspended in HBSS/20 mM Hepes, pH 7.4 to a cell density of 1×10^6/mL.
cAMP levels were determined using the Cisbio HTRF method. HRTF reagents (cAMP-HTRF acceptor fluorophore (d2) conjugate and cryptate-labeled anti-cAMP antibody) were prepared according to maunfacturers instructions. 5 μL of each were added to each well of an assay plate and incubated for 1 h at RT. The plate was then read on an Envision reader using the HTRF protocol, and data were exported for analysis.
The agonist Emax results were expressed as a percent of the dopamine control response ((measured specific response/control specific agonist response)×100) obtained in the presence of test article. The EC50 values (concentration producing a half-maximal specific response) were determined by non-linear regression analysis of the concentration-response curves.

[3] = molecular target: T1, long isoform of human D2 receptor; experiment: Arrestin Agonist Assay (DRD2L PathHunter CHO-K1 cells, β-arrestin recruitment); conditions: for Emax: CHO-K1, read-out: β-arrestin (agonist mode) Emax

T1 sequence (P14416 whole entry, canonical isoform): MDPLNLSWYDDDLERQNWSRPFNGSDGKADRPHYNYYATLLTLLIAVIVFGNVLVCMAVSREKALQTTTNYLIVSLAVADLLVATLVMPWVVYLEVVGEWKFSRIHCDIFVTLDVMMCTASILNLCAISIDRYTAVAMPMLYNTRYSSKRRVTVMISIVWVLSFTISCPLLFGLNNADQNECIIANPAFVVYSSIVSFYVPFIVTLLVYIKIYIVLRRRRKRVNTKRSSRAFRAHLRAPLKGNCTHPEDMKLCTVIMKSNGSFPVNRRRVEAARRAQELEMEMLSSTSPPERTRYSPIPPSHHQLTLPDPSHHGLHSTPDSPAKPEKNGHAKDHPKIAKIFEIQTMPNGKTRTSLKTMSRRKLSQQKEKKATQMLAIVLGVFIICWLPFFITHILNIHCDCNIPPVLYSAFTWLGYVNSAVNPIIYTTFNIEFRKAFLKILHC

| SMILES | IC50 [1] | Emax [1] | IC50 [2] | Emax [2] | EC50 [3] | Emax [3] |
| --- | --- | --- | --- | --- | --- | --- |
| Oc1cccc2ccc(OCCCCN3CCc4ccccc4C3)nc12 [Compound 12, 2-(4-(3,4-dihydroisoquinolin-2(1H)-yl)butoxy)quinolin-8-ol] | 1000 to 10000 nM | > 75% | > 10000 nM | < 10% | 10 to 100 nM | 10 to 25% |
| Clc1cccc(N2CCN(CCCCOc3cccc(-c4cc[nH]n4)n3)CC2)c1Cl [Compound 46, 1-(4-((6-(1H-pyrazol-3-yl)pyridin-2-yl)oxy)butyl)-4-(2,3-dichlorophenyl)piperazine] | < 10 nM | 50 to 75% | < 10 nM | 50 to 75% | < 10 nM | 10 to 25% |
| Cc1cccc(N2CCN(CCCCOc3ccc4cn[nH]c4c3)CC2)c1C [Compound 95, 6-(4-(4-(2,3-dimethylphenyl)piperazin-1-yl)butoxy)-1H-indazole] | 10 to 100 nM | > 75% | 10 to 100 nM | 10 to 25% | > 10000 nM | < 10% |
| O=C1CCc2ccc(OCCCCN3CCc4ncsc4C3)cc2N1 [Compound 26, 7-(4-(6,7-dihydrothiazolo[5,4-c]pyridin-5(4H)-yl)butoxy)-3,4-dihydroquinolin-2(1H)-one] | 1000 to 10000 nM | > 75% | 10 to 100 nM | 25 to 50% | < 10 nM | 10 to 25% |
| O=c1ccc2ccc(OCCCCN3CCc4cc(F)ccc4C3)nc2[nH]1 [Compound 56, 7-(4-(6-fluoro-3,4-dihydroisoquinolin-2(1H)-yl)butoxy)-1,8-naphthyridin-2(1H)-one] | < 10 nM | > 75% | > 10000 nM | < 10% | > 10000 nM | < 10% |
| CCOc1ccccc1N1CCN(CCCCOc2cccc(-c3cc[nH]n3)n2)CC1 [Compound 49, 1-(4-((6-(1H-pyrazol-3-yl)pyridin-2-yl)oxy)butyl)-4-(2-ethoxyphenyl)piperazine] | < 10 nM | 50 to 75% | < 10 nM | 50 to 75% | < 10 nM | 10 to 25% |
| O=C1CCc2ccc(OCCCCN3CCc4ccsc4C3)nc2N1 [Compound 70, 7-(4-(4,5-dihydrothieno[2,3-c]pyridin-6(7H)-yl)butoxy)-3,4-dihydro-1,8-naphthyridin-2(1H)-one] | 100 to 1000 nM | > 75% | > 10000 nM | < 10% | > 10000 nM | < 10% |
| Cn1cc2c(n1)CCN(CCCCOc1ccc3c(c1)NC(=O)CC3)C2 [Compound 24, 7-(4-(2-methyl-6,7-dihydro-2H-pyrazolo[4,3-c]pyridin-5(4H)-yl)butoxy)-3,4-dihydroquinolin-2(1H)-one] | 1000 to 10000 nM | 25 to 50% | 10 to 100 nM | > 75% | 100 to 1000 nM | 25 to 50% |
| O=C1NCCc2ccc(OCCCCN3CCc4cc(F)ccc4C3)nc2N1 [Compound 84, 8-(4-(6-fluoro-3,4-dihydroisoquinolin-2(1H)-yl)butoxy)-4,5-dihydro-1H-pyrido[2,3-d][1,3]diazepin-2(3H)-one] | 10 to 100 nM | > 75% | > 10000 nM | < 10% | > 10000 nM | < 10% |
| Oc1cccc2ccc(OCCCCN3CCc4cccc(C(F)(F)F)c4C3)nc12 [Compound 21, 2-(4-(8-(trifluoromethyl)-3,4-dihydroisoquinolin-2(1H)-yl)butoxy)quinolin-8-ol] | 100 to 1000 nM | > 75% | < 10 nM | 25 to 50% | > 10000 nM | < 10% |
| O=C1CCc2ccc(OCCCCN3CCc4cc(Cl)ccc4C3)nc2N1 [Compound 75, 7-(4-(6-chloro-3,4-dihydroisoquinolin-2(1H)-yl)butoxy)-3,4-dihydro-1,8-naphthyridin-2(1H)-one] | 10 to 100 nM | > 75% | < 10 nM | 10 to 25% | > 10000 nM | < 10% |
| O=C1CCc2ccc(OCCCCN3CCc4cc(C(F)(F)F)ccc4C3)nc2N1 [Compound 74, 7-(4-(6-(trifluoromethyl)-3,4-dihydroisoquinolin-2(1H)-yl)butoxy)-3,4-dihydro-1,8-naphthyridin-2(1H)-one] | 100 to 1000 nM | > 75% | 10 to 100 nM | 10 to 25% | > 10000 nM | < 10% |
| c1cc(OCCCCN2CCc3ccccc3C2)nc(-c2c[nH]cn2)c1 [Compound 51, 2-(4-((6-(1H-imidazol-4-yl)pyridin-2-yl)oxy)butyl)-1,2,3,4-tetrahydroisoquinoline] | 100 to 1000 nM | > 75% | > 10000 nM | < 10% | > 10000 nM | < 10% |
| CCOc1ccccc1N1CCN(CCCCOc2ccc3cn[nH]c3c2)CC1 [Compound 93, 6-(4-(4-(2-ethoxyphenyl)piperazin-1-yl)butoxy)-1H-indazole] | 10 to 100 nM | > 75% | < 10 nM | 25 to 50% | < 10 nM | 10 to 25% |
| O=C1CCc2ccc(OCCCCN3CCc4ccccc4C3)nc2N1 [Compound 68, 7-(4-(3,4-dihydroisoquinolin-2(1H)-yl)butoxy)-3,4-dihydro-1,8-naphthyridin-2(1H)-one] | 10 to 100 nM | > 75% | < 10 nM | 25 to 50% | > 10000 nM | < 10% |
| COc1cccnc1N1CCN(CCCCOc2cccc(-c3cc[nH]n3)n2)CC1 [Compound 47, 1-(4-((6-(1H-pyrazol-3-yl)pyridin-2-yl)oxy)butyl)-4-(3-methoxypyridin-2-yl)piperazine] | < 10 nM | 50 to 75% | < 10 nM | 50 to 75% | < 10 nM | 10 to 25% |
| O=c1ccc2ccc(OCCCCN3CCc4nn(-c5ccccc5)cc4C3)nc2[nH]1 [Compound 66, 7-(4-(2-phenyl-6,7-dihydro-2H-pyrazolo[4,3-c]pyridin-5(4H)-yl)butoxy)-1,8-naphthyridin-2(1H)-one] | 10 to 100 nM | > 75% | 10 to 100 nM | 10 to 25% | > 10000 nM | < 10% |
| COc1ccc2c(c1)CCN(CCCCOc1ccc3ccc(=O)[nH]c3n1)C2 [Compound 55, 7-(4-(6-methoxy-3,4-dihydroisoquinolin-2(1H)-yl)butoxy)-1,8-naphthyridin-2(1H)-one] | < 10 nM | > 75% | < 10 nM | 25 to 50% | < 10 nM | 10 to 25% |
| O=c1ccc2ccc(OCCCCN3CCc4c(Cl)cccc4C3)nc2[nH]1 [Compound 60, 7-(4-(5-chloro-3,4-dihydroisoquinolin-2(1H)-yl)butoxy)-1,8-naphthyridin-2(1H)-one] | > 10000 nM | < 10% | < 10 nM | > 75% | < 10 nM | > 75% |
| O=C1CCc2ccc(OCCCCN3CCc4nn(-c5ccccn5)cc4C3)cc2N1 [Compound 38, 7-(4-(2-(pyridin-2-yl)-6,7-dihydro-2H-pyrazolo[4,3-c]pyridin-5(4H)-yl)butoxy)-3,4-dihydroquinolin-2(1H)-one] | 10 to 100 nM | 25 to 50% | < 10 nM | 50 to 75% | < 10 nM | 25 to 50% |
| N#Cc1cccc2c1CCN(CCCCOc1ccc3c(n1)NC(=O)CC3)C2 [Compound 78, 2-(4-((7-oxo-5,6,7,8-tetrahydro-1,8-naphthyridin-2-yl)oxy)butyl)-1,2,3,4-tetrahydroisoquinoline-5-carbonitrile] | > 10000 nM | < 10% | 10 to 100 nM | 50 to 75% | 10 to 100 nM | 50 to 75% |
| c1ccc(N2CCN(CCCCOc3ccc4cn[nH]c4n3)CC2)nc1 [Compound 4, 6-(4-(4-(pyridin-2-yl)piperazin-1-yl)butoxy)-1H-pyrazolo[3,4-b]pyridine] | > 10000 nM | < 10% | < 10 nM | > 75% | 10 to 100 nM | > 75% |
| CS(=O)(=O)Nc1cccc(OCCCCN2CCc3ccccc3C2)n1 [Compound 42, N-(6-(4-(3,4-dihydroisoquinolin-2(1H)-yl)butoxy)pyridin-2-yl)methanesulfonamide] | 1000 to 10000 nM | > 75% | > 10000 nM | < 10% | > 10000 nM | < 10% |
| Oc1cccc2ccc(OCCCCN3CCN(c4ccccn4)CC3)nc12 [Compound 8, 2-(4-(4-(pyridin-2-yl)piperazin-1-yl)butoxy)quinolin-8-ol] | > 10000 nM | < 10% | < 10 nM | > 75% | 10 to 100 nM | > 75% |
| CCn1cc2c(n1)CCN(CCCCOc1ccc3c(c1)NC(=O)CC3)C2 [Compound 34, 7-(4-(2-ethyl-6,7-dihydro-2H-pyrazolo[4,3-c]pyridin-5(4H)-yl)butoxy)-3,4-dihydroquinolin-2(1H)-one] | > 10000 nM | < 10% | 100 to 1000 nM | 50 to 75% | 100 to 1000 nM | 50 to 75% |
| c1cc(OCCCCN2CCc3ccccc3C2)nc(-c2cc[nH]n2)c1 [Compound 44, 2-(4-((6-(1H-pyrazol-3-yl)pyridin-2-yl)oxy)butyl)-1,2,3,4-tetrahydroisoquinoline] | 10 to 100 nM | > 75% | < 10 nM | 10 to 25% | < 10 nM | 10 to 25% |
| Clc1ccccc1N1CCN(CCCCOc2cccc(-c3cc[nH]n3)n2)CC1 [Compound 50, 1-(4-((6-(1H-pyrazol-3-yl)pyridin-2-yl)oxy)butyl)-4-(2-chlorophenyl)piperazine] | < 10 nM | 50 to 75% | < 10 nM | 50 to 75% | < 10 nM | 25 to 50% |
